What was measured:
[1] = system: CD8+ T cells co-cultured with MM.1S multiple myeloma cells; assay: PD-1 induction on CD8+ T cells co-cultured with MM.1S-luc cells, flow cytometry; assay type: cell-based, human; settings: 1 nM BCMAxCD3 bispecific
Description: CD3+ T cells from PBMCs (Stem Cell Technologies) were negatively selected using EasySep Human T cell enrichment kit (Stem Cell Technologies). 10,000 target Multiple Myeloma MM.1S cells expressing luciferase (MM.1S-luc) were seeded with 50,000 CD3^+ pan T cells in a clear 96-well V-bottom plate. Cells were treated with 1 nM BCMAxCD3 bispecific antibody and PD-1 expression was analyzed at 3, 24, 48 and 72 hours after addition of the BCMAxCD3 bispecific. At the specified time points, cells were collected from the wells, washed with PBS+2% FBS, and stained with ZombieNlR Viability dye (Biolegend) in PBS for 20 minutes at room temperature, followed by staining with antibodies against human CD8 and PD-1 (Biolegend). Samples were analyzed using FlowJo flow cytometry analysis software. Dead cells were removed from analysis by gating on ZombieNlR negative population. Samples were further gated on CD8^+ positive population. Percentage of PD-1^+ cells is expressed as PD-1 positive cells within the CD8^+ population.

[2] = system: MM.1S-Luc-PD-L1 multiple myeloma cells; assay: Orthotopic MM.1S-Luc-PD-L1 multiple myeloma mouse model, luminescent imaging; assay type: in vivo, NSG mice; settings: BCMAxCD3 10 μg/kg single IV dose day 21, anti-PD-1 5 mg/kg IP twice a week
Description: MM.1 S-Luc multiple myeloma cells were engineered to express PD-L1 and are referred to as MM.1S-Luc-PD-L1. MM.1S-Luc-PD-L1 cells were prepared as a single cell suspension of 5×10^6 cells for intravenous (IV) inoculation into NSG mice.
Tumor growth was monitored by luminescent imaging by intraperitoneal (IP) injection of luciferin solution in DPBS and imaged using Perkin Elmer IVIS Spectrum camera system. Animals were administered 2×10^7 expanded human T cells IV 19 days after tumor cell inoculation. Two days following T cell administration, a single dose of the BCMAxCD3 bispecific (10 μg/kg) was administered as a bolus IV injection. Anti-PD-1 antibody was administered twice a week as a bolus IP injection at 5 mg/kg for a total of 6 injections.
Tumor growth was monitored via imaging measurements collected twice weekly. Mice were imaged using the Perkin Elmer IVIS Spectrum camera system with automatic parameter determination and a maximum imaging time of 3 minutes. Living Image software was used to collect the data. Regions of Interest (ROIs) were drawn around the entire body of the mouse, excluding as much as possible of the tail. Background flux, as measured on the anesthesia manifold, is subtracted from each ROI. Tumor measurements are expressed as total flux expressed in photons/sec (p/s). Study was terminated at day 40 post tumor inoculation.

[3] = system: MM.1S-PD-L1 multiple myeloma cells; assay: Subcutaneous MM.1S-PD-L1 multiple myeloma mouse model, tumor volume; assay type: in vivo
Description: MM.1S multiple myeloma cells were engineered to express PD-L1 and are referred to as MM.1S-PD-L1. Pre-activated and expanded T cells (20×10^6) were administered on Day 19 after MM.1S-PDL1 tumor cell inoculation subcutaneously (SC). BCMAxCD3 bispecific (0.3 or 1 mg/kg) or negative bispecific (1 mg/kg) was administered IV on Day 21 and dosed Q7Dx3. Anti-PD-1 mAb was administered at 5 mg/kg intraperitoneally (IP) twice a week starting on Day 21. Tumor measurements were recorded 2 to 3 times a week using digital calipers. N (at study start) is 5-12 animals per group.

Raji-luc lymphoma cells = assay: BCMAxCD3 mediated cell killing with human T cells, with or without GSI (luciferase viability); assay type: cell-based; settings: with or without 1 μM GSI, 60 hours
Description: CD3^+ T cells from PBMCs (Stem Cell Technologies) were negatively selected using EasySep Human T cell enrichment kit (Stem Cell Technologies). 10,000 target lymphoma cells expressing luciferase (Raji-luc) were treated with 1 μM GSI. After 24 hours, cells were seeded with 50,000 CD3^+ pan T cells in a clear 96-well V-bottom plate. Cells were further treated with a range of BCMAxCD3 bispecific concentrations with or without 1 μM GSI. 60 hours after treatment, luciferase activity in treated cells was analyzed using NeoLite reagent kit (Perkin Elmer) and acquired on VictorX multimode plate reader (Perkin Elmer). Cell viability was calculated by dividing luciferase activity of treated cells over luciferase activity of untreated control (no BCMAxCD3 bispecific antibody added).

[4] = Phase 1 clinical study NCT03269136, preliminary pharmacokinetic analysis; assay type: in vivo, human; settings: preliminary pharmacokinetic (PK) analysis
Description: Therefore, a fixed dose is suitable for the dosing of PF-06863135. Based on the encouraging efficacy data and safety data obtained from Part I of Study, a promising RP2D for Part 2A of the study could be a fixed dose equivalent of 1000 μg/kg (ie, 76 mg) of PF-06863135 either in Q1W or Q2W. A fixed dose equivalent of 600 μg/kg (ie, 44 mg) will likely be used as a priming dose on cycle zero day 1. The initial dose of 44 mg serves as a priming dose and is designed to mitigate the CRS symptoms of the later 76 mg dose. […] Subsequently, the 44 mg (priming) and 76 mg (maintenance) were selected as the single agent RP2D dose. Patient will be administered a single priming dose of 44 mg SC of PF06863135, followed by maintenance dosing of 76 mg Q1W SC or 76 mg Q2W starting 7 days after the single priming dose.

PF-06863135: heterodimeric humanized full-length bispecific antibody, one BCMA binding arm and one CD3 binding arm, modified human IgG2Δa Fc
% PD-1 (of CD8+ T cells) ([1]; 3 hours): 12.8 ± 0.6% | % PD-1 (of CD8+ T cells) ([1]; 24 hours): 18.9 ± 1.2% | % PD-1 (of CD8+ T cells) ([1]; 48 hours): 69.9 ± 3.1% | % PD-1 (of CD8+ T cells) ([1]; 72 hours): 69.9 ± 3.1% | Tumor measurements expressed as total flux ([2]; day 15 post tumor cell inoculation (before dosing)): 1.513 × 10^7 p/s | Tumor measurements expressed as total flux ([2]; day 18 post tumor cell inoculation (before dosing)): 8.343 × 10^7 p/s | Tumor measurements expressed as total flux ([2]; day 20 post tumor cell inoculation (before dosing)): 1.788 × 10^8 p/s | Tumor measurements expressed as total flux ([2]; day 25 post tumor cell inoculation): 2.2729 × 10^7 p/s | Tumor measurements expressed as total flux ([2]; day 28 post tumor cell inoculation): 7.082 × 10^7 p/s | Tumor measurements expressed as total flux ([2]; day 32 post tumor cell inoculation): 7.076 × 10^7 p/s | Tumor measurements expressed as total flux ([2]; day 35 post tumor cell inoculation): 8.712 × 10^8 p/s | Tumor measurements expressed as total flux ([2]; day 39 post tumor cell inoculation): 6.776 × 10^8 p/s | Tumor Volume ± SEM ([3]; day 14 post inoculation (before dosing), bispecific 0.3 mg/kg IV Q7Dx3 from Day 21, anti-PD-1 5 mg/kg IP twice a week): 34.4 ± 9.5 mm^3 | Tumor Volume ± SEM ([3]; day 14 post inoculation (before dosing), bispecific 1 mg/kg IV Q7Dx3 from Day 21, anti-PD-1 5 mg/kg IP twice a week): 26.4 ± 7.5 mm^3 | Tumor Volume ± SEM ([3]; day 18 post inoculation (before dosing), bispecific 0.3 mg/kg IV Q7Dx3 from Day 21, anti-PD-1 5 mg/kg IP twice a week): 91.6 ± 18 mm^3 | Tumor Volume ± SEM ([3]; day 18 post inoculation (before dosing), bispecific 1 mg/kg IV Q7Dx3 from Day 21, anti-PD-1 5 mg/kg IP twice a week): 92 ± 17.1 mm^3 | Tumor Volume ± SEM ([3]; day 20 post inoculation (before dosing), bispecific 0.3 mg/kg IV Q7Dx3 from Day 21, anti-PD-1 5 mg/kg IP twice a week): 122.5 ± 20.7 mm^3 | Tumor Volume ± SEM ([3]; day 20 post inoculation (before dosing), bispecific 1 mg/kg IV Q7Dx3 from Day 21, anti-PD-1 5 mg/kg IP twice a week): 130.7 ± 24.6 mm^3 | Tumor Volume ± SEM ([3]; day 25 post inoculation, bispecific 0.3 mg/kg IV Q7Dx3 from Day 21, anti-PD-1 5 mg/kg IP twice a week): 403 ± 59 mm^3 | Tumor Volume ± SEM ([3]; day 25 post inoculation, bispecific 1 mg/kg IV Q7Dx3 from Day 21, anti-PD-1 5 mg/kg IP twice a week): 601.1 ± 70 mm^3 | Tumor Volume ± SEM ([3]; day 28 post inoculation, bispecific 0.3 mg/kg IV Q7Dx3 from Day 21, anti-PD-1 5 mg/kg IP twice a week): 403.3 ± 67.6 mm^3 | Tumor Volume ± SEM ([3]; day 28 post inoculation, bispecific 1 mg/kg IV Q7Dx3 from Day 21, anti-PD-1 5 mg/kg IP twice a week): 482.9 ± 32.6 mm^3 | Tumor Volume ± SEM ([3]; day 32 post inoculation, bispecific 0.3 mg/kg IV Q7Dx3 from Day 21, anti-PD-1 5 mg/kg IP twice a week): 603.6 ± 151.6 mm^3 | Tumor Volume ± SEM ([3]; day 32 post inoculation, bispecific 1 mg/kg IV Q7Dx3 from Day 21, anti-PD-1 5 mg/kg IP twice a week): 410.5 ± 82.7 mm^3 | Tumor Volume ± SEM ([3]; day 35 post inoculation, bispecific 0.3 mg/kg IV Q7Dx3 from Day 21, anti-PD-1 5 mg/kg IP twice a week): 835.1 ± 77.2 mm^3 | Tumor Volume ± SEM ([3]; day 35 post inoculation, bispecific 1 mg/kg IV Q7Dx3 from Day 21, anti-PD-1 5 mg/kg IP twice a week): 627.9 ± 111.8 mm^3 | Tumor Volume ± SEM ([3]; day 39 post inoculation, bispecific 0.3 mg/kg IV Q7Dx3 from Day 21, anti-PD-1 5 mg/kg IP twice a week): 1569.3 ± 151.8 mm^3 | Tumor Volume ± SEM ([3]; day 39 post inoculation, bispecific 1 mg/kg IV Q7Dx3 from Day 21, anti-PD-1 5 mg/kg IP twice a week): 1436.8 ± 276.4 mm^3 | Raji Cell Viability (Raji-luc lymphoma cells; BCMA × CD3 0.00064 nM): 94 ± 3.7 % control | Raji Cell Viability (Raji-luc lymphoma cells; BCMA × CD3 0.0032 nM): 107 ± 4.5 % control | Raji Cell Viability (Raji-luc lymphoma cells; BCMA × CD3 0.016 nM): 105.8 ± 10.2 % control | Raji Cell Viability (Raji-luc lymphoma cells; BCMA × CD3 0.08 nM): 89.3 ± 5.7 % control | Raji Cell Viability (Raji-luc lymphoma cells; BCMA × CD3 0.4 nM): 88.1 ± 18.4 % control | Raji Cell Viability (Raji-luc lymphoma cells; BCMA × CD3 2 nM): 71 ± 9.7 % control | Raji Cell Viability (Raji-luc lymphoma cells; BCMA × CD3 10 nM): 82.1 ± 9.7 % control | Raji Cell Viability (Raji-luc lymphoma cells; BCMA × CD3 50 nM): 80 ± 13.2 % control | body weight as factor on PF-06863135 exposure [4]: not a clinically relevant factor
